Assay results: US9469615B2, “Quinoxalines and AZA-quinoxalines as CRTH2 receptor modulators” (Merck Sharp & Dohme Corp., priority 2010, dated 2016)

biological target: T1, hCRTH2 (Homo sapiens, UniProt Q9Y5Y4); test: Radioligand binding assay ([3H]PGD2 competition, HEK-hCRTH2 membranes); settings: [3H]PGD2 competition, Table B
T1 construct: expressed in transfected cells; host or cells: HEK (human embryonic kidney) cells expressing hCRTH2; membrane preparation
T1 sequence (Q9Y5Y4 1-395): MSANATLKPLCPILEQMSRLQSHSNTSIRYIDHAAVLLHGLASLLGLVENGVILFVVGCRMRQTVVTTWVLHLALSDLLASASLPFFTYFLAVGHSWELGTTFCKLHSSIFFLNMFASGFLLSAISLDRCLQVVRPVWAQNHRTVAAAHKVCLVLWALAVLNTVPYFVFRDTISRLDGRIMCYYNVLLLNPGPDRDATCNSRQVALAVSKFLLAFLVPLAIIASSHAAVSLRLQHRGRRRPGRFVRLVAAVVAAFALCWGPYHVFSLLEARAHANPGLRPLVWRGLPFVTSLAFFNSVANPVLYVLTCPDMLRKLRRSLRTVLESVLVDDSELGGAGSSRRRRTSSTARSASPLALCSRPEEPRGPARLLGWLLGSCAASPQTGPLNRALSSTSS
Outline: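 Using membranes of an HEK line stably carrying hCRTH2, ligands were tested against [3H]PGD2 (3.0 nM) in pH 7.4 Tris buffer containing 2 mM MnCl2 and 1 mM EDTA. After one hour at room temperature, filters were washed cold and counted.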

SMILES	Ki [µM]
O=C(N[C@H](c1ccc(F)cc1)C(F)(F)F)c1ccc2nc(-c3ccc(F)cc3)c(CCCC(F)(F)C(=O)O)nc2c1 [compound 528, (R)-2,2-difluoro-5-(3-(4-fluorophenyl)-7-((2,2,2-trifluoro-1-(4-fluorophenyl)ethyl)carbamoyl)quinoxalin-2-yl)pentanoic acid]	0.0201 to 0.2
CN(Cc1ccc(F)cc1)C(=O)c1ccc2nc(-c3ccc(F)cc3)c(CCCC(F)(F)C(=O)O)nc2c1 [compound 529, 2,2-difluoro-5-(7-((4-fluorobenzyl)(methyl)carbamoyl)-3-(4-fluorophenyl)quinoxalin-2-yl)pentanoic acid]	0.0201 to 0.2
O=C(c1ccc2nc(-c3ccc(F)cc3)c(CCCC(F)(F)C(=O)O)nc2c1)N1CCN(c2ccccc2)CC1 [compound 530]	0.0201 to 0.2
O=C(c1ccc2nc(-c3ccc(F)cc3)c(CCCC(F)(F)C(=O)O)nc2c1)N1CCC(c2ccccc2)CC1 [compound 531, 2,2-difluoro-5-(3-(4-fluorophenyl)-7-(4-phenylpiperidine-1-carbonyl)quinoxalin-2-yl)pentanoic acid]	0.0021 to 0.02
O=C(O)CCCCc1nc2cc(C(=O)N[C@@H]3CCOc4cc(F)ccc43)ccc2nc1-c1ccc(Cl)cc1 [compound 532, (R)-5-(3-(4-chlorophenyl)-7-((7-fluorochroman-4-yl)carbamoyl)quinoxalin-2-yl)pentanoic acid]	0.0021 to 0.02
O=C(O)CCCCc1nc2cc(C(=O)N[C@@H]3CCOc4cc(F)c(F)cc43)ccc2nc1-c1ccc(Cl)cc1 [compound 533, (R)-5-(3-(4-chlorophenyl)-7-((6,7-difluorochroman-4-yl)carbamoyl)quinoxalin-2-yl)pentanoic acid]	0.0021 to 0.02
O=C(O)CCCCc1nc2cc(C(=O)N[C@H]3CCOc4ccc(F)cc43)ccc2nc1-c1ccc(Cl)cc1 [compound 534, (S)-5-(3-(4-chlorophenyl)-7-((6-fluorochroman-4-yl)carbamoyl)quinoxalin-2-yl)pentanoic acid]	0.0021 to 0.02
C[C@H](NC(=O)c1ccc2nc(-c3ccc(F)cc3)c(CCCCC(=O)O)nc2c1)c1ccc2ccccc2c1 [compound 535, (S)-5-(3-(4-fluorophenyl)-7-((1-(naphthalen-2-yl)ethyl)carbamoyl)quinoxalin-2-yl)pentanoic acid]	0.0021 to 0.02
C[C@H](NC(=O)c1ccc2nc(-c3ccc(F)cc3)c(CCCCC(=O)O)nc2c1)c1cccc2ccccc12 [compound 536, (S)-5-(3-(4-fluorophenyl)-7-((1-(naphthalen-1-yl)ethyl)carbamoyl)quinoxalin-2-yl)pentanoic acid]	0.0021 to 0.02
O=C(O)CCCCc1nc2cc(C(=O)N[C@@H]3CCOc4ccc(F)cc43)ccc2nc1-c1ccc(F)cc1 [compound 537, (R)-5-(7((6-fluorochroman-4-yl)carbamoyl)-3-(4-fluorophenyl)quinoxalin-2-yl)pentanoic acid]	0.0021 to 0.02
O=C(O)CCCCc1nc2cc(C(=O)N[C@@H]3CCOc4cc(F)c(F)cc43)ccc2nc1-c1ccc(F)cc1 [compound 538, (R)-5-(7-((6,7-difluorochroman-4-yl)carbamoyl)-3-(4-fluorophenyl)quinoxalin-2-yl)pentanoic acid]	0.0021 to 0.02
C[C@@H]1CN(c2ccc(Cl)cc2)CCN1C(=O)c1ccc2nc(-c3ccc(Cl)cc3)c(CCCCC(=O)O)nc2c1 [compound 539, (R)-5-(3-(4-chlorophenyl)-7-(4-(4-chlorophenyl)-2-methylpiperazine-1-carbonyl)quinoxalin-2-yl)pentanoic acid]	0.0021 to 0.02
C[C@@H]1CN(c2ccc(Cl)cc2)CCN1C(=O)c1ccc2nc(-c3ccc(F)cc3)c(CCCCC(=O)O)nc2c1 [compound 540, (R)-5-(7-(4-(4-chlorophenyl)-2-methylpiperazine-1-carbonyl)-3-(4-fluorophenyl)quinoxalin-2-yl)pentanoic acid]	0.0021 to 0.02
C[C@H]1CN(c2ccc(Cl)cc2)CCN1C(=O)c1ccc2nc(-c3ccc(Cl)cc3)c(CCCCC(=O)O)nc2c1 [compound 541, (S)-5-(3-(4-chlorophenyl)-7-(4-(4-chlorophenyl)-2-methylpiperazine-1-carbonyl)quinoxalin-2-yl)pentanoic acid]	0.0021 to 0.02
C[C@H]1CN(c2ccc(Cl)cc2)CCN1C(=O)c1ccc2nc(-c3ccc(F)cc3)c(CCCCC(=O)O)nc2c1 [compound 542, (S)-5-(7-(4-(4-chlorophenyl)-2-methylpiperazine-1-carbonyl)-3-(4-fluorophenyl)quinoxalin-2-yl)pentanoic acid]	0.0021 to 0.02
O=C(O)Cc1cccc(CCCc2nc3cc(C(=O)N4CCN(c5ccccc5)CC4)ccc3nc2-c2ccc(Cl)cc2)c1 [compound 543, 2-(3-(3-(3-(4-chlorophenyl)-7-(4-phenylpiperazine-1-carbonyl)quinoxalin-2-yl)propyl)phenyl)acetic acid]	0.0201 to 0.2

SMILES	Ki [µM]
CN(Cc1ccc(F)cc1)C(=O)c1ccc2nc(-c3ccc(Cl)cc3)c(CCCc3cccc(CC(=O)O)c3)nc2c1 [compound 544, 2-(3-(3-(3-(4-chlorophenyl)-7-((4-fluorobenzyl) (methyl)carbamoyl)quinoxalin-2-yl)propyl)phenyl)acetic acid]	0.0201 to 0.2
C[C@@H](NC(=O)c1ccc2nc(-c3ccc(Cl)cc3)c(CCCc3cccc(CC(=O)O)c3)nc2c1)c1ccc(F)cc1 [compound 545, (R)-2-(3-(3-(3-(4-chlorophenyl)-7-((1-(4-fluorophenyl)ethyl)carbamoyl)quinoxalin-2-yl)propyl)phenyl)acetic acid]	0.201 to 0.7
O=C(O)Cc1cccc(CCCc2nc3cc(C(=O)NCc4ccc(Cl)cc4)ccc3nc2-c2ccc(Cl)cc2)c1 [compound 546, 2-(3-(3-(7-((4-chlorobenzyl)carbamoyl)-3-(4-chlorophenyl)quinoxalin-2-yl)propyl)phenyl) acetic acid]	0.0201 to 0.2
O=C(N[C@@H]1CCOc2ccccc21)c1ccc2nc(-c3ccc(F)cc3)c(CCCC(F)(F)C(=O)O)nc2c1 [compound 547]	0.0201 to 0.2
O=C(N[C@H]1CCOc2ccccc21)c1ccc2nc(-c3ccc(F)cc3)c(CCCC(F)(F)C(=O)O)nc2c1 [compound 548, (S)-5-(7-(chroman-4-ylcarbamoyl)-3-(4-fluorophenyl)quinoxalin-2-yl)-2,2-difluoro-pentanoic acid]	0.201 to 0.7
C[C@H]1CN(c2ccccc2)CCN1C(=O)c1ccc2nc(-c3ccccc3)c(CCCCC(=O)O)nc2c1 [compound 549, (S)-5-(7-(2-methyl-4-phenylpiperazine-l-carbonyl)-3-phenylquinoxalin-2-yl)pentanoic acid]	0.0021 to 0.02
C[C@@H]1CN(c2ccc(Cl)cc2)CCN1C(=O)c1ccc2nc(-c3ccccc3)c(CCCCC(=O)O)nc2c1 [compound 550, (R)-5-(7-(4-(4-chlorophenyl)-2-methylpiperazine-1-carbonyl)-3-phenyl-quinoxa1in-2-yl)pentanoic acid]	0.0021 to 0.02
C[C@H]1CN(c2ccc(Cl)cc2)CCN1C(=O)c1ccc2nc(-c3ccccc3)c(CCCCC(=O)O)nc2c1 [compound 551, (S)-5-(7-(4-(4-chlorophenyl)-2-methylpiperazine-1-carbonyl)-3-phenyl-quinoxalin-2-yl)pentanoic acid]	0.0021 to 0.02
O=C(O)CCCCc1nc2cc(C(=O)N3CCN(c4ncccn4)CC3)ccc2nc1-c1ccc(Cl)cc1 [compound 552, 5-(3-(4-chlorophenyl)-7-(4-(pyrimidin-2-yl)piperazine-1-carbonyl)quinoxalin-2-yl)pentanoic acid]	0.0021 to 0.02
O=C(O)CCCCc1nc2cc(C(=O)N3CCN(c4ccccc4)C(=O)C3)ccc2nc1-c1ccc(Cl)cc1 [compound 553, 5-(3-(4-chlorophenyl)-7-(3-oxo-4-phenylpiperazine-1-carbonyl)quinoxalin-2-yl)pentanoic acid]	0.0021 to 0.02
O=C(O)CCCCc1nc2cc(C(=O)N3CCN(c4ccccn4)CC3)ccc2nc1-c1ccc(Cl)cc1 [compound 554, 5-(3-(4-chlorophenyl)-7-(4-(pyridin-2-yl)piperazine-1-carbonyl)quinoxalin-2-yl)pentanoic acid]	0.0021 to 0.02
O=C(O)CCCCc1nc2cc(C(=O)N3CCN(Cc4ccccc4)CC3)ccc2nc1-c1ccc(Cl)cc1 [compound 555, 5-(7-(4-benzylpiperazine-1-carbonyl)-3-(4-chlorophenyl)quinoxalin-2-yl)pentanoic acid]	0.0021 to 0.02
CC1(C)CCC(NC(=O)c2ccc3nc(-c4ccc(Cl)cc4)c(CCCCC(=O)O)nc3c2)c2ccccc21 (centres unmarked) [compound 556]	0.0021 to 0.02
O=C(O)CCCCc1nc2cc(C(=O)N3CCc4cc(F)ccc4C3)ccc2nc1-c1ccc(Cl)cc1 [compound 557, 5-(3-(4-chlorophenyl)-7-(6-fluoro-1,2,3,4-tetrahydroisoquinoline-2-carbonyl)quinoxalin-2-yl)pentanoic acid]	0.0021 to 0.02
CC1(C)c2ccc(F)cc2CN1C(=O)c1ccc2nc(-c3ccc(Cl)cc3)c(CCCCC(=O)O)nc2c1 [compound 558, 5-(3-(4-chlorophenyl)-7-(5-fluoro-1,1-dimethylisoindoline-2-carbonyl)quinoxalin-2-yl)pentanoic acid]	0.0021 to 0.02
O=C(O)CCCCc1nc2cc(C(=O)N3CC[C@H](c4ccc(F)cc4)C3)ccc2nc1-c1ccc(Cl)cc1 [compound 559, (R)-5-(3-(4-chlorophenyl)-7-(3-(4-fluorophenyl)pyrrolidine-1-carbonyl)quinoxalin-2-yl)pentanoic acid]	0.0001 to 0.002
